± gives the expanded uncertainty stated by the source.
Assay: xn = mol fraction of the nth substance listed
Conditions: 100 kPa, Liquid, Vibrating tube method

| mass density (293.15 K, x1 = 0.01) [kg/m3] | mass density (293.15 K, x1 = 0.03) [kg/m3] | mass density (293.15 K, x1 = 0.05) [kg/m3] | mass density (303.15 K, x1 = 0.01) [kg/m3] | mass density (303.15 K, x1 = 0.03) [kg/m3] | mass density (303.15 K, x1 = 0.05) [kg/m3] | mass density (313.15 K, x1 = 0.01) [kg/m3] | mass density (313.15 K, x1 = 0.03) [kg/m3] | mass density (313.15 K, x1 = 0.05) [kg/m3] | mass density (323.15 K, x1 = 0.01) [kg/m3] | mass density (323.15 K, x1 = 0.03) [kg/m3] | mass density (323.15 K, x1 = 0.05) [kg/m3] | mass density (333.15 K, x1 = 0.01) [kg/m3] | mass density (333.15 K, x1 = 0.03) [kg/m3] | mass density (333.15 K, x1 = 0.05) [kg/m3] | SMILES |
| --- | --- | --- | --- | --- | --- | --- | --- | --- | --- | --- | --- | --- | --- | --- | --- |
| 1090.5 ± 0.2 | 1267.9 ± 0.4 | 1438.8 ± 0.5 | 1086.7 ± 0.2 | 1262.8 ± 0.4 | 1432.6 ± 0.5 | 1082.3 ± 0.3 | 1257.3 ± 0.4 | 1426 ± 0.5 | 1077.6 ± 0.3 | 1251.5 ± 0.4 | 1419.3 ± 0.5 | 1072.4 ± 0.3 | 1245.5 ± 0.4 | 1412.4 ± 0.5 | [Br-].[Cs+] [cesium bromide] + O |
| 1069.9 ± 0.2 | 1208.3 ± 0.3 | 1342.6 ± 0.4 | 1066.3 ± 0.2 | 1203.6 ± 0.3 | 1337 ± 0.4 | 1062.1 ± 0.2 | 1198.6 ± 0.3 | 1331.2 ± 0.4 | 1057.5 ± 0.2 | 1193.2 ± 0.3 | 1325.2 ± 0.4 | 1052.4 ± 0.2 | 1187.7 ± 0.3 | 1319.1 ± 0.4 | [Cl-].[Cs+] [cesium chloride] + O |
| 1070.9 ± 0.2 | 1210.1 ± 0.3 | 1349.9 ± 0.4 | 1068 ± 0.2 | 1206.2 ± 0.3 | 1345.4 ± 0.4 | 1064.3 ± 0.2 | 1201.7 ± 0.3 | 1340.4 ± 0.4 | 1059.9 ± 0.3 | 1196.6 ± 0.3 | 1334.9 ± 0.4 | 1053 ± 0.3 | 1190.9 ± 0.3 | 1329.1 ± 0.4 | [Cs+].[F-] [cesium fluoride (CsF)] + O |
| 1109.5 ± 0.3 | 1320.7 ± 0.4 | 1519.4 ± 0.6 | 1105.6 ± 0.3 | 1314.9 ± 0.4 | 1512.1 ± 0.6 | 1101 ± 0.3 | 1308.9 ± 0.4 | 1504.5 ± 0.6 | 1096 ± 0.3 | 1302.5 ± 0.4 | 1496.9 ± 0.6 | 1090.6 ± 0.3 | 1295.9 ± 0.4 | 1489.1 ± 0.6 | [Cs+].[I-] [cesium iodide] + O |
| 1033.5 ± 0.2 | 1101.8 ± 0.3 | 1171.5 ± 0.3 | 1030.2 ± 0.2 | 1098 ± 0.3 | 1168 ± 0.3 | 1026.3 ± 0.2 | 1093.9 ± 0.3 | 1163.9 ± 0.3 | 1022 ± 0.2 | 1089.4 ± 0.3 | 1159.3 ± 0.3 | 1017.2 ± 0.2 | 1084.6 ± 0.3 | 1154.3 ± 0.3 | [Br-].[Li+] [lithium bromide] + O |
| 1012.3 ± 0.2 | 1038.5 ± 0.2 | 1064.1 ± 0.2 | 1009.7 ± 0.2 | 1035.7 ± 0.2 | 1061.2 ± 0.2 | 1006.2 ± 0.2 | 1032.3 ± 0.2 | 1057.9 ± 0.2 | 1002.1 ± 0.2 | 1028.3 ± 0.2 | 1054 ± 0.2 | 997.4 ± 0.2 | 1023.8 ± 0.2 | 1049.8 ± 0.2 | [Cl-].[Li+] [lithium chloride] + O |
| 1053.3 ± 0.2 | 1160.8 ± 0.3 | 1268.1 ± 0.4 | 1049.8 ± 0.2 | 1156.3 ± 0.3 | 1262.7 ± 0.4 | 1045.7 ± 0.2 | 1151 ± 0.3 | 1257.2 ± 0.4 | 1041.2 ± 0.2 | 1146.1 ± 0.3 | 1251.4 ± 0.4 | 1036.2 ± 0.2 | 1140.7 ± 0.3 | 1245.5 ± 0.4 | [I-].[Li+] [lithium iodide] + O |
| 1045.7 ± 0.2 | 1137.7 ± 0.3 | 1227.4 ± 0.3 | 1042.6 ± 0.2 | 1133.7 ± 0.3 | 1222.6 ± 0.3 | 1038.7 ± 0.2 | 1129.1 ± 0.3 | 1217.4 ± 0.3 | 1034.2 ± 0.2 | 1123.9 ± 0.3 | 1211.7 ± 0.3 | 1029.2 ± 0.2 | 1118.4 ± 0.3 | 1205.7 ± 0.3 | [Br-].[K+] [potassium bromide] + O |
| 1024.3 ± 0.2 | 1074.8 ± 0.2 | 1123.6 ± 0.3 | 1021.4 ± 0.2 | 1071.2 ± 0.2 | 1119.6 ± 0.3 | 1017.7 ± 0.2 | 1067 ± 0.2 | 1115.1 ± 0.3 | 1013.3 ± 0.2 | 1062.4 ± 0.2 | 1110.2 ± 0.3 | 1008.4 ± 0.2 | 1057.2 ± 0.3 | 1104.9 ± 0.3 | [Cl-].[K+] [potassium chloride] + O |
| 1025.7 ± 0.2 | 1080.5 ± 0.2 | 1135.5 ± 0.3 | 1022.8 ± 0.2 | 1077 ± 0.2 | 1130.7 ± 0.3 | 1019.2 ± 0.2 | 1072.9 ± 0.2 | 1126.5 ± 0.3 | 1014.8 ± 0.2 | 1068.4 ± 0.2 | 1121.9 ± 0.3 | 1010 ± 0.2 | 1063.5 ± 0.2 | 1116.9 ± 0.3 | [F-].[K+] [potassium fluoride] + O |
| 1065.2 ± 0.2 | 1194 ± 0.3 | 1317.9 ± 0.4 | 1061.9 ± 0.2 | 1189.3 ± 0.3 | 1312.1 ± 0.4 | 1057.9 ± 0.2 | 1184.1 ± 0.3 | 1306 ± 0.4 | 1053.2 ± 0.2 | 1178.4 ± 0.3 | 1299.3 ± 0.4 | 1047.9 ± 0.2 | 1172.3 ± 0.3 | 1292.4 ± 0.4 | [I-].[K+] [potassium iodide] + O |
| 1068.6 ± 0.2 | 1204.6 ± 0.3 | 1336.9 ± 0.4 | 1065 ± 0.2 | 1199.7 ± 0.3 | 1331 ± 0.4 | 1060.7 ± 0.2 | 1194.5 ± 0.3 | 1324.9 ± 0.4 | 1056 ± 0.2 | 1188.9 ± 0.3 | 1318.6 ± 0.4 | 1050.9 ± 0.2 | 1182.9 ± 0.3 | 1312.2 ± 0.4 | [Br-].[Rb+] [rubidium bromide] + O |
| 1048.3 ± 0.2 | 1144.2 ± 0.3 | 1237.9 ± 0.3 | 1044.8 ± 0.2 | 1139.8 ± 0.3 | 1232.8 ± 0.3 | 1040.7 ± 0.2 | 1135 ± 0.3 | 1227.5 ± 0.3 | 1036.1 ± 0.2 | 1130 ± 0.3 | 1222 ± 0.3 | 1031.2 ± 0.2 | 1124.7 ± 0.3 | 1216.3 ± 0.3 | [Cl-].[Rb+] [rubidium chloride] + O |

Source: the NIST ThermoML archive (doi:10.1021/je500420g)
